Source: patent US20130150243A1, “METHOD OF CONTROLLING PEST” (SUMITOMO CHEMICAL COMPANY, LIMITED, priority 2011, published 2013)

How the values were obtained:
Format in all cases: in vivo
[1] = system: cotton; experiment: Phytotoxicity on crop; parameters: key: when phytotoxicity is hardly perceived, it is represented by “no damage”; when slight phytotoxicity is perceived, it is represented by “slight”; when moderate phytotoxicity is perceived, it is represented by “moderate”; when severe phytotoxicity is perceived, it is represented by “severe”; details: soil treated with flumioxazin 50 or 75 g/ha 15 days before seeding
Source text: For evaluation of phytotoxicity on a crop, when phytotoxicity is hardly perceived, it is represented by “no damage”, when slight phytotoxicity is perceived, it is represented by “slight”, when moderate phytotoxicity is perceived, it is represented by “moderate”, and when severe phytotoxicity is perceived, it is represented by “severe”. The “phytotoxicity” evaluated herein is a damage characteristic determined to be caused by the treated compound, and is clearly discriminated from a damage characteristic caused by a pest.
(§1) Into a plastic cup having an internal diameter of 96 millimeters and a height of 44 millimeters are placed 25 microliters of a clothianidin suspension (suspension containing 600 g/L clothianidin, trade name: NipsIt INSIDE, manufactured by Valent USA) and 50 grains of cotton seeds. By shaking this plastic cup with a hand, the clothianidin suspension is attached to the cotton seeds.
Into a pot made of a plastic having an internal diameter of 177 millimeters and a height of 140 millimeters is packed a soil in which each of about 500 milligrams of seeds of Conyza canadensis, Amaranthus palmeri and Chenopodium album are mixed. A liquid of a flumioxazin water dispersible granule (water dispersible granule containing 51% of flumioxazin, trade name: Valor SX, manufactured by Valent USA) diluted with water is uniformly sprayed on the soil surface of this pot with a sprayer, so that flumioxazin is applied in an amount of 50 or 75 g/ha. Fifteen days after spraying, the cotton seeds are seeded at 5 grains per pot.
Six days after release of Aphis gossypii, the insecticidal activity, herbicidal activity and phytotoxicity are determined, and high weed controlling activity (>80) and high Aphis gossypii control value (>70) are obtained, and the phytotoxicity on the cotton is “no damage”.
Into a plastic cup having an internal diameter of 96 millimeters and a height of 44 millimeters are placed 25 microliters of a thiamethoxam preparation (preparation containing 600 g/L thiamethoxam, trade name: Cruiser 5FS, manufactured by Syngenta) and 50 grains of cotton seeds. By shaking this plastic cup with a hand, the thiamethoxam preparation is attached to the cotton seeds.

[2] = system: Aphis gossypii; experiment: Insecticidal activity (controlling value) on cotton grown from treated seeds; details: soil treated with flumioxazin 50 or 75 g/ha, six days after release of Aphis gossypii
Protocol: For evaluating the insecticidal activity, life or death of an insect at investigation is determined, and a controlling value is obtained by the following equation:
Controlling value(%)=100×(1−T/C)
C: Number of insects at observation of non-treated section T: Number of insects at observation of treated-section
as §1
Fifteen days after seeding with the cotton seeds, a cotton leaf piece on which 20 larvae and 20 adults of Aphis gossypii inhabited is placed in the pot, and the whole plant is covered with a nylon cloth.
(§2) Six days after release of Aphis gossypii, the insecticidal activity, herbicidal activity and phytotoxicity are determined, and high weed controlling activity (>80) and high Aphis gossypii control value (>70) are obtained, and the phytotoxicity on the cotton is “no damage”. […]

[3] = system: Conyza canadensis, Amaranthus palmeri and Chenopodium album; experiment: Herbicidal activity in pot test, soil surface treated before seeding with treated cotton seeds; details: assessed 21 days after seeding
Source text: Evaluation of herbicidal activity is classified into 0 to 100, letting no or little difference when the state of germination or growth of a test weed at investigation is compared with that of non-treatment to be “0”, and letting complete withering of a test weed or complete inhibition of germination or growth to be “100”.
as §1
Into a pot made of a plastic having an internal diameter of 177 millimeters and a height of 140 millimeters is packed a soil in which each of about 500 milligrams of seeds of Conyza canadensis, Amaranthus palmeri and Chenopodium album are mixed. […]
as §2

[4] = Example 1: clothianidin-treated cotton seeds
[5] = Example 2: thiamethoxam-treated cotton seeds

| Compound | phytotoxicity on the cotton [1, 4] | Aphis gossypii control value ([2]; Example 1: clothianidin suspension (NipsIt INSIDE, 600 g/L) 25 microliters per 50 cotton seeds) | phytotoxicity on the cotton [1, 5] | weed controlling activity (herbicidal activity, scale 0 to 100) ([3]; Example 1: flumioxazin (Valor SX) 50 or 75 g/ha on soil surface 15 days before seeding, cotton seeds treated with clothianidin) | weed controlling activity (herbicidal activity, scale 0 to 100) ([3]; Example 2: flumioxazin (Valor SX) 50 or 75 g/ha on soil surface 15 days before seeding, cotton seeds treated with thiamethoxam) | Aphis gossypii control value ([2]; Example 2: thiamethoxam preparation (Cruiser 5FS, 600 g/L) 25 microliters per 50 cotton seeds) |
| --- | --- | --- | --- | --- | --- | --- |
| CN/C(=N\[N+](=O)[O-])NCc1cnc(Cl)s1 [clothianidin] | no damage | > 70% |  |  |  |  |
| C#CCN1C(=O)COc2cc(F)c(N3C(=O)C4=C(CCCC4)C3=O)cc21 [flumioxazin] | no damage |  | no damage | > 80 | > 80 |  |
| CN1COCN(Cc2cnc(Cl)s2)/C1=N\[N+](=O)[O-] [thiamethoxam] |  |  | no damage |  |  | > 70% |
